Assay results from patent US20160340732A1, “COMPOSITIONS AND METHODS FOR DIAGNOSING AND TREATING NUCLEOTIDE REPEAT DISORDERS” (University of Virginia Patent Foundation, priority 2015, published 2016).

Tests used:
NETO1 mRNA = NETO1 mRNA levels in astrocytes transfected with miR-762 mimic, inhibitor or scrambled miR; assay type: cell-based; settings: non-diseased astrocytes transfected with 400 nM, vs scrambled miR (FIG. 15)
Excerpt: De novo introduction of the expanded repeat into naïve wild-type cells to induce NETO1 expression will be evaluated. […] NETO1 is not a predicted target of miR-762 by traditional in silico analysis (which relies on 3′ UTR analysis). However, a (C4G2)3 site 149 base pairs upstream of the NETO1 5′ UTR was identified that appeared significant both for its perfect replication of the C9 antisense expansion and its predicted tight pairing to miR-762 (RegRNA database: http://regrna.mbc.nctu.edu.tw/html/prediction.html). miR binding and regulation of transcripts in the 5′ region is poorly understood, but is known to occur. miR-762 may be able to bind and downregulate NETO1 transcript levels. To assess this, non-diseased astrocytes were transfected with 400 nM miR-762 mimic, miR-762 inhibitor, or scrambled miR. […] If NETO1 regulation is involved in FTLD-MND glutamate excitotoxicity, then targeting miR-762 regulation of the transcript could represent a possible therapeutic angle.

miR-762 = miR-762 levels in cells exposed to HDAC inhibitors; assay type: cell-based; settings: mouse C2C12 cells, TSA 50 nM vs DMSO, 48 hours (FIG. 7)
Description: Epigenetic drugs increasing expression of miR-15 family members levels or miR762 are anticipated to have therapeutic potential. Importantly, these drugs are generally safe, and could influence NRDs even with small changes in miR levels. No regulators of miR-762 have been published, so whether candidate drugs might alter miR-762 levels in vitro were assessed. Cells were exposed to vehicle, trichostatin A (TSA, an HDAC inhibitor and antifungal agent), and valproate (an epilepsy drug, mood stabilizer, and weaker HDAC inhibitor). TSA increased miR-762 levels 65-fold (FIG. 7).

Compound	NETO1 mRNA level (NETO1 mRNA)	increase of miR-762 levels (miR-762)
miR-762: miR-762 mimic transfected at 400 nM; miRNA sequence SEQ ID NO: 5 (Table 1) (CGAGCCGGGGCCGGGGUCGGGG; listed as RNA, chemistry not given here; listed as Homo sapiens)	reproducible and significant downregulation	–
CC(/C=C/C(=O)NO)=C\[C@@H](C)C(=O)c1ccc(N(C)C)cc1 [TSA, trichostatin A]	–	65 fold
